Experiment [1] concerns the target calmodulin-depending cyclic nucleotide phosphodiesterase (PDE). As to the kind of experiment: Calmodulin (CaM) inhibitory activity: inhibition of Ca/calmodulin-dependent PDE activity. The class given is biochemical. Conditions: concentration showing 50% inhibition of PDE activity potentiated by CaM; CaM and PDE from bovine brain, [3H]-cGMP, 30°C, 10 minutes. As for the experimental part: The calmodulin inhibitory activity of a compound was evaluated by using its effect of inhibiting calmodulin-depending cyclic nucleotide phosphodiesterase (PDE) as an index. The assay for PDE inhibitory activity was carried out by the following procedure described by Thompson (Advances in Cyclic Nucleotide Research, 10, 69, 1979) with a modification. The first-stage incubation was carried out at 30°C for 10 minutes with the following reaction mixture: 50 mM Tris-HCl buffer (pH 7.5), 5 mM MgCl2, 1 mg/ml bovine serum albumin, CaM from bovine brain, [^3H]-cGMP, 1 mM CaCl2 or 1 mM EGTA, PDE from bovine brain, and a test compound in a total volume of 0.5 ml. After the incubation, the mixture was heated on a boiling water bath for 1 minute. Then, 50 µl of snake venom (1 mg/ml) was added to the reaction mixture and the whole mixture was incubated at 30°C for 10 minutes. After the incubation, 0.5 ml of AG1-X2 resin (1:1 slurry in water) was added to the mixture and centrifuged at 3000Xrpm for 20 min. The radioactivity of the supernatant solution was measured by a liquid scintillation counter. The IC50 value was determined as the concentration showing 50% inhibition of PDE activity potentiated by CaM.

Experiment [2] deals with Nitrogen-induced Hypoxia Model in Mouse. As to the kind of experiment: Activity on nitrogen-induced hypoxia model in mouse. In kind it is in vivo. Conditions: 30 mg/kg, p.o.; 60 minutes after administration; time to respiratory standstill over that of a control group (100%). As for the experimental part: Nine to ten mice per group were each orally given […] of a test compound. After 60 minutes from the administration, each mouse was put in a 500 mℓ-volume transparent container having a vent hole, and nitrogen gas was introduced into the container at a rate of 5000 mℓ/min. The time from the start of nitrogen introduction to respiratory standstill was measured, and a rate of increase of the time over that of a control group (100%) was obtained.

In general, IC50 refers to the point on the concentration scale where inhibition reaches its midpoint.

In the case of `NCCCCCCNS(=O)(=O)c1cccc2c(Cl)cccc12` [Example W-7, reference compound], the IC50 in experiment [1] came out at 33.5 µM.
In the case of `COc1cc2c(CCN3CCN(c4cccc(Cl)c4C)CC3)nn(Cc3c[nH]cn3)c2cc1OC` [Example 15, 3-(2-(4-(3-Chloro-2-methylphenyl)-1-piperazinyl)-ethyl)-5,6-dimethoxy-1-(4-imidazolylmethyl)-1H-indazole], the 50% inhibitory concentration (IC50) in experiment [1] is 5.5 µM. Besides, the “Rate of Increase of Survival Time” value in experiment [2] was 15.1%.
Turning to `COc1ccc(Cn2nc(CCN3CCN(c4cccc(Cl)c4C)CC3)c3cc(OC)c(OC)cc32)cc1OC` [Example 12, 3-(2-(4-(3-Chloro-2-methylphenyl)-1-piperazinyl)-ethyl)-5 6-dimethoxy-1-(3,4-dimethoxybenzyl)-1H-indazole], the IC50 in experiment [1] came out at 3.1 µM. Besides, the “Rate of Increase of Survival Time” value in experiment [2] was 19.2%.
